In US9359308B2, “Pyrazine kinase inhibitors” (Portola Pharmaceuticals, Inc., priority 2011, dated 2016):

target: T1, full length active recombinant SYK enzyme (Homo sapiens, UniProt P43405); experiment: Inhibition of Syk tyrosine phosphorylation activity (LANCE TR-FRET kinase assay); assay type: biochemical; conditions: activity in the Syk assays, class symbols
T1 construct: full length active recombinant SYK enzyme (Millipore, Calif.); purchased Millipore
Excerpt: The in vitro and in vivo human Syk activities of the inventive compounds can be determined by various procedures known in the art, such as a test for their ability to inhibit the activity of human plasma Syk. […] The IC50 value is the concentration (in nM) of the compound required to provide 50% inhibition of human Syk proteolytic activity.
An in vitro assay for detecting and measuring inhibition activity against Syk is as follows:
Inhibition of Syk Tyrosine Phosphorylation Activity
Potency of candidate molecules for inhibiting Syk tyrosine phosphorylation activity is assessed by measuring the ability of a test compound to inhibit Syk-mediated tyrosine phosphorylation of a Syk-specific substrate.
SYK tyrosine phosphorylation activity is measured using the LANCE™ Technology developed by Perkin Elmer Life and Analytical Sciences (Boston, Mass.). LANCE™ refers to homogeneous time resolved fluorometry applications using techniques such as time-resolved fluorescence resonance energy transfer assay (TR-FRET) (see generally for procedures in Perkin Elmer Application Note-How to Optimize a Tyrosine Kinase Assay Using Time Resolved Fluorescence-Based LANCE Detection, wwww.perkinelmer.com/lifesciences). The assay principle involves detection of a phosphorylated substrate using energy transfer from a phosphospecific europium-labeled antibody to streptavidin-allophycocyanin as an acceptor.
To test the ability of candidate molecules to inhibit SYK tyrosine phosphorylation activity, molecules are reconstituted in 30% DMSO and serially diluted 1:3 with the final dilution containing DMSO in the absence of the candidate molecule. The final DMSO concentration in the assay is 3%. Kinase assays are performed as a two part reaction. The first reaction is a kinase reaction and which comprises of a candidate molecule, full length active recombinant SYK enzyme (Millipore, Calif.) and biotin-labeled SYK-specific substrate biotin-DEEDYESP-OH. The second reaction involves termination of the kinase reaction and the simultaneous addition of the detection reagents-europium-labeled anti-phosphotyrosine reagent (Eu-W1024-PY100, Perkin Elmer, Boston, Mass.) and Streptavidin-Allophycocyanin detection reagent (SA-APC, Prozyme, CA). The kinase reaction is performed in a black U-bottom 96-well microtitre plate. The final reaction volume is 50 μL and contains a final concentration of 1 nM active SYK enzyme, 550 nM SYK-substrate, and 100 μM ATP diluted in a buffer containing 50 mM Tris pH 7.5, 5 mM MgCl2, and 1 mM DTT. The reaction is allowed to proceed for 1 hour at room temperature. The quench buffer contains 100 mM Tris pH 7.5, 300 mM NaCl2, 20 mM EDTA, 0.02% Brij35, and 0.5% BSA. The detection reagents are added to the reaction mixture at the following dilutions-1:500 for Eu-W1024-PY100 and 1:250 for SA-APC. The kinase reaction is terminated by the addition of 50 μL quench buffer containing the detection reagents. The detection is allowed to proceed for 1 hr at room temperature. Detection of the phosphorlated substrate in the absence and presence of inhibitors is measured in the TR-FRET instrument, Analyst HT (Molecular Probes, Sunnyvale, Calif.) and the condition for measurements are set up using CriterionHost Release 2.0 (Molecular Probes, Sunnyvale, Calif.). The settings used are a follows: excitation 360 nm, emission 665-7.5 nm, beam splitter 350 nm 50/50, flash 100 pulses, delay 60 us, integration 400 us, z-height 2 mm. Inhibition of SYK-tyrosine kinase activity is calculated as the maximum response observed in the presence of inhibitor, compared to that in the absence of inhibitor. IC50s were derived by non-linear regression analysis.

| IC50 | SMILES |
| --- | --- |
| 1 to 10 nM | NC(=O)c1ncc(N[C@@H]2CCCC(F)(F)[C@@H]2N)nc1Nc1ccc2ncncc2c1 [Example 405, 5-((1R,2R)-2-amino-3,3-difluorocyclohexylamino)-3-(quinazolin-6-ylamino)pyrazine-2-carboxamide] |
| 10 to 100 nM | Cc1cc(Nc2nc(N[C@H](CC(C)(C)C)C(N)=O)cnc2C(N)=O)sn1 [Example 266, (R)-5-(1-amino-4,4-dimethyl-1-oxopentan-2-ylamino)-3-(3-methylisothiazol-5-ylamino)pyrazine-2-carboxamide] |
| 1 to 10 nM | NC(=O)c1ncc(N[C@@H](C(N)=O)C2CC2)nc1Nc1cnc2ccccc2c1 [Example 68, (R)-5-(2-amino-1-cyclopropyl-2-oxoethylamino)-3-(quinolin-3-ylamino)pyrazine-2-carboxamide] |
| 1 to 10 nM | CC[C@@H](Nc1cnc(C(N)=O)c(Nc2ccnc(N(C)C)c2)n1)C(N)=O [Example 353, (R)-5-(1-amino-1-oxobutan-2-ylamino)-3-(2-(dimethylamino)pyridin-4-ylamino)pyrazine-2-carboxamide] |
| 10 to 100 nM | NC(=O)c1ncc(NC[C@@H](N)CC(F)F)nc1Nc1cccc(-c2ncccn2)c1 [Example 176, (S)-5-(2-amino-4,4-difluorobutylamino)-3-(3-(pyrimidin-2-yl)phenylamino)pyrazine-2-carboxamide] |
| 1 to 10 nM | CC[C@@H](Nc1cnc(C(N)=O)c(Nc2cc(C)cc(C)c2)n1)C(N)=O [Example 77, (R)-5-(1-amino-1-oxobutan-2-ylamino)-3-(3,5-dimethylphenylamino)pyrazine-2-carboxamide] |
| 1 to 10 nM | NC(=O)c1ncc(N[C@@H]2CCCC[C@@H]2N)nc1Nc1ccc2nccn2c1 [Example 425, 5-(((1R,2S)-2-aminocyclohexyl)amino)-3-(imidazo[1,2-a]pyridin-6-ylamino)pyrazine-2-carboxamide] |
| 1 to 10 nM | CC[C@@H](Nc1cnc(C(N)=O)c(Nc2cnc3ccc(F)cc3c2)n1)C(N)=O [Example 232, (R)-5-(1-amino-1-oxobutan-2-ylamino)-3-(6-fluoroquinolin-3-ylamino)pyrazine-2-carboxamide] |
| 100 to 1000 nM | Cc1nsc(Nc2nc(N[C@@H]3CCCC[C@@H]3N)cnc2C(N)=O)c1-c1cccnc1 [Example 121] |
| 1 to 10 nM | Cc1cc(Nc2nc(N[C@@H](C(N)=O)c3ccccc3)cnc2C(N)=O)sn1 [Example 395, (R)-5-(2-amino-2-oxo-1-phenylethylamino)-3-(3-methylisothiazol-5-ylamino)pyrazine-2-carboxamide] |
| < 1 nM | CC(C)C[C@@H](Nc1cnc(C(N)=O)c(Nc2ccnc(C3CC3)c2)n1)C(N)=O [Example 344, (R)-5-(1-amino-4-methyl-1-oxopentan-2-ylamino)-3-(2-cyclopropylpyridin-4-ylamino)pyrazine-2-carboxamide] |
| 10 to 100 nM | CC[C@@H](Nc1cnc(C(N)=O)c(Nc2cc(C)nc(C)c2)n1)C(N)=O [Example 179, (R)-5-(1-amino-1-oxobutan-2-ylamino)-3-(2,6-dimethylpyridin-4-ylamino)pyrazine-2-carboxamide] |
| 100 to 1000 nM | CC(C)[C@@H](Nc1cnc(C(N)=O)c(Nc2ccc(CS(C)(=O)=O)cc2)n1)C(N)=O [Example 150, (R)-5-(1-amino-3-methyl-1-oxobutan-2-ylamino)-3-(4-(methylsulfonylmethyl)phenylamino)pyrazine-2-carboxamide] |
| 1 to 10 nM | NC(=O)c1ncc(N[C@H](CC(F)(F)F)C(N)=O)nc1Nc1cnc2cccnc2c1 [Example 126, (R)-3-((1,5-naphthyridin-3-yl)amino)-5-((1-amino-4,4,4-trifluoro-1-oxobutan-2-yl)amino)pyrazine-2-carboxamide] |
| 1 to 10 nM | NC(=O)c1ncc(N[C@@H]2CCCC[C@@H]2N)nc1Nc1ccc(C2CC2)nc1 [Example 351, 5-((1R,2S)-2-aminocyclohexylamino)-3-(6-cyclopropylpyridin-3-ylamino)pyrazine-2-carboxamide] |
| > 1000 nM | NC(=O)c1ncc(N[C@@H]2CCCC[C@@H]2N)nc1NC1CCOCC1 [Example 35, 5-((1R,2S)-2-aminocyclohexylamino)-3-(tetrahydro-2H-pyran-4-ylamino)pyrazine-2-carboxamide] |
| 1 to 10 nM | CC[C@@H](Nc1cnc(C(N)=O)c(Nc2ccc3cccnc3c2)n1)C(N)=O [Example 376, (R)-5-(1-amino-1-oxobutan-2-ylamino)-3-(quinolin-7-ylamino)pyrazine-2-carboxamide] |
| 100 to 1000 nM | NC(=O)c1ncc(N[C@@H]2CCCC[C@@H]2N)nc1Nc1ccc(N2CCCC2)c(C(=O)N2CCCC2)c1 [Example 285, 5-((1R,2S)-2-aminocyclohexylamino)-3-(4-(pyrrolidin-1-yl)-3-(pyrrolidine-1-carbonyl)phenylamino)pyrazine-2-carboxamide] |
| 10 to 100 nM | CCc1cc(Nc2nc(N[C@@H]3CCCC(F)(F)[C@@H]3N)cnc2C(N)=O)sn1 [Example 226, 5-((1R,2R)-2-amino-3,3-difluorocyclohexylamino)-3-(3-ethylisothiazol-5-ylamino)pyrazine-2-carboxamide] |
| 100 to 1000 nM | NC(=O)c1ncc(N[C@@H]2CCCC[C@@H]2N)nc1N[C@H]1CCc2ccccc21 [Example 39, 5-((1R,2S)-2-aminocyclohexylamino)-3-((S)-2,3-dihydro-1H-inden-1-ylamino)pyrazine-2-carboxamide] |
| 1 to 10 nM | NC(=O)c1ncc(N[C@H](CC2CC2)C(N)=O)nc1Nc1cnc2ccccc2c1 [Example 7, (R)-5-(1-amino-3-cyclopropyl-1-oxopropan-2-ylamino)-3-(quinolin-3-ylamino)pyrazine-2-carboxamide] |
| 1 to 10 nM | CCOc1ccc(Nc2nc(N[C@@H]3CCCC[C@@H]3N)cnc2C(N)=O)cn1 [Example 308, 5-((1R,2S)-2-aminocyclohexylamino)-3-(6-ethoxypyridin-3-ylamino)pyrazine-2-carboxamide] |
| 100 to 1000 nM | CC[C@@H](Nc1cnc(C(N)=O)c(Nc2cc(CN3CCOCC3)ns2)n1)C(N)=O [Example 254, (R)-5-(1-amino-1-oxobutan-2-ylamino)-3-(3-(morpholinomethyl)isothiazol-5-ylamino)pyrazine-2-carboxamide] |
| 1 to 10 nM | Cc1cc(Nc2nc(N[C@H](CC(C)C)C(N)=O)cnc2C(N)=O)sn1 [Example 22, (R)-5-(1-amino-4-methyl-1-oxopentan-2-ylamino)-3-(3-methylisothiazol-5-ylamino)pyrazine-2-carboxamide] |
| 1 to 10 nM | CC[C@@H](Nc1cnc(C(N)=O)c(Nc2ccc3ccncc3c2)n1)C(N)=O [Example 379, (R)-5-(1-amino-1-oxobutan-2-ylamino)-3-(isoquinolin-7-ylamino)pyrazine-2-carboxamide] |
| 10 to 100 nM | Cc1ccc(Nc2nc(N[C@H](CC(C)C)C(N)=O)cnc2C(N)=O)cc1 [Example 69, (R)-5-(1-amino-4-methyl-1-oxopentan-2-ylamino)-3-(p-tolylamino)pyrazine-2-carboxamide] |
| 1 to 10 nM | CC(C)[C@@H](Nc1cnc(C(N)=O)c(Nc2ccc3ncccc3c2)n1)C(N)=O [Example 67, (R)-5-(1-amino-3-methyl-1-oxobutan-2-ylamino)-3-(quinolin-6-ylamino)pyrazine-2-carboxamide] |
| 1 to 10 nM | NC(=O)c1ncc(N[C@@H]2CCCC[C@@H]2N)nc1Nc1cncc(C(F)(F)F)c1 [Example 197, 5-((1R,2S)-2-aminocyclohexylamino)-3-(5-(trifluoromethyl)pyridin-3-ylamino)pyrazine-2-carboxamide] |
| 1 to 10 nM | NC(=O)c1ncc(N[C@@H]2CCCC[C@@H]2N)nc1Nc1ccnc2ncccc12 [Example 437, 3-((1,8-naphthyridin-4-yl)amino)-5-(((1R,2S)-2-aminocyclohexyl)amino)pyrazine-2-carboxamide] |
